Consider four compounds from patent US20110082133A1, “PYRIDONE COMPOUNDS” (priority 2008, published 2011).

For one assay, the system named is TNF-α production. The assay can be described thus: In vivo TNF-α production inhibiting action in rat (LPS-induced plasma TNF-α). Details: species or system SD male rats. As to conditions: oral administration 1 hour before LPS (10 μg/kg i.v.), plasma TNF-α 90 minutes after LPS. How it is done:
LPS (10 μg/kg) was administered to caudal veins of SD male rats, and after 90 minutes from the administration, the heparin blood was collected from the abdominal vena cava to prepare a plasma. The test compound was orally administered 1 hour before the administration of LPS. The amount of TNF-α in the plasma was measured using a BD OptEIA rat TNF ELISA set (manufactured by Becton, Dickinson and Company) according to the attached method. The inhibitory rate by the test compound was determined from the amount of TNF-α in plasma in a control group (administered with a solvent).

The next assay deals with rat EP4 receptor (Rattus norvegicus, UniProt P43114). The assay can be described thus: EP4 receptor agonistic action in rat (cAMP increasing action in rat EP4 receptor expression CHO-K1 cells). Format: cell-based. As to conditions: cAMP increasing action by 1 μM PGE2 taken as 100%. Details: expressed in transfected cells. The procedure: The agonistic activity was evaluated by the cAMP increasing action in the rat EP4 receptor expression cells. The rat EP4 receptor expression vector was introduced into CHO-K1 cells (American Type Culture Collection) to prepare a rat EP4 receptor stable expression cell line. These cells were seeded onto a 96-well microplate at 2×10^4 cell/well, and used for the experiment the next day. The culture medium of each well was removed by suction, 100 μL/well of an assay culture medium (2 μM indomethacin, 0.1% bovine serum albumin-containing α-MEM) was added thereto, and incubated at 37° C. for 1 hour. The culture medium was removed again by suction, and replaced with 100 μL/well of an assay culture medium comprising a test compound and 1 mM IBMX (3-isobutyl-1-methylxanthine). After incubating at 37° C. for 30 minutes, the culture medium was removed by suction, 100 μL/well of a cell lysate (0.2% Triton-X100-containing phosphate buffer physiological saline) was put thereinto, and the plate was shaken for 10 minutes. Using a cAMP femto 2 kit (manufactured by Cis Bio International), the cAMP concentration in the cell lysate was measured. Further, the cAMP increasing action (%) was calculated with the cAMP increasing action by 1 μM PGE2 was taken as 100%.

A further assay concerns the target T1, rat EP2 receptor (Rattus norvegicus, UniProt Q62928).
T1 construct: expressed in transfected cells
Nature of the assay: Rat EP2 receptor agonistic/antagonistic action (cAMP assay, CHO-K1 stable expression cells). As to conditions: cAMP increasing action, 1 μM PGE2 taken as 100%, NE means that the action has no significance. Format: cell-based. How it is done: For a rat EP2 receptor, stable expression cells were used to carry out a cAMP assay. The agonistic activity was evaluated by the cAMP increasing action by the test compound, and the antagonistic activity was evaluated by the inhibiting action of the test compound on the cAMP increasing action by PGE2.
The rat EP2 receptor cDNA was subcloned into an expression vector (pcDNA3.1-V5-His-topo, manufactured by Invitrogen Corporation). This expression vector was introduced into CHO-K1 cells (American Type Culture Collection) to prepare a rat EP2 receptor stable expression cell line. These cells were seeded onto a 96-well microplate at 0.5×10^4 cell/well, and used for the experiment the next day. The culture medium of each well was removed by suction, 100 μL/well of an assay culture medium (α-MEM containing 2 μM indomethacin and 0.1% bovine serum albumin) was added thereto, and incubated at 37° C. for 1 hour. The culture medium was removed again by suction, and replaced with 100 μL/well of an assay culture medium containing a test compound and 1 mM IBMX. […] Using a cAMP femto 2 kit (manufactured by Cis Bio International), the cAMP concentration in the cell lysate was measured. In this connection, the cAMP increasing action (%) was calculated with the cAMP increasing action by 1 μM PGE2 was taken as 100%.
In general terms: Cyclic AMP is a second messenger, typically raised through Gs and lowered through Gi signalling.

Usually ED50 stands for the midpoint of the dose-response relation. High values mean a need for a large dose, low ones an effect at a small dose.

Where a name gives a salt, the structure may show the parent alone.

Chain of rat EP4 receptor (P43114 whole entry): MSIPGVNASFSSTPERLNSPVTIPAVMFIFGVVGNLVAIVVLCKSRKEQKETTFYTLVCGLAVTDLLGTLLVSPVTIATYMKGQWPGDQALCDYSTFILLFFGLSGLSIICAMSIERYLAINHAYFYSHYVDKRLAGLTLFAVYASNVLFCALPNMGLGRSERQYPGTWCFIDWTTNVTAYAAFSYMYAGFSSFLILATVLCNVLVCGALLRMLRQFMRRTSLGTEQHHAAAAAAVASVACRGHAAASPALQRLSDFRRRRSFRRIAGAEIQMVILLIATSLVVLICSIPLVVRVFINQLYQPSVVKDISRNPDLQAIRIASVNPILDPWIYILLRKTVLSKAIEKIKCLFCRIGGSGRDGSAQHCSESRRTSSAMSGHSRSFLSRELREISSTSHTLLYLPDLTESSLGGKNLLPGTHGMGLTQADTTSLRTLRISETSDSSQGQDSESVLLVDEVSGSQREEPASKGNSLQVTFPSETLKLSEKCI
T1 sequence (Q62928 whole entry): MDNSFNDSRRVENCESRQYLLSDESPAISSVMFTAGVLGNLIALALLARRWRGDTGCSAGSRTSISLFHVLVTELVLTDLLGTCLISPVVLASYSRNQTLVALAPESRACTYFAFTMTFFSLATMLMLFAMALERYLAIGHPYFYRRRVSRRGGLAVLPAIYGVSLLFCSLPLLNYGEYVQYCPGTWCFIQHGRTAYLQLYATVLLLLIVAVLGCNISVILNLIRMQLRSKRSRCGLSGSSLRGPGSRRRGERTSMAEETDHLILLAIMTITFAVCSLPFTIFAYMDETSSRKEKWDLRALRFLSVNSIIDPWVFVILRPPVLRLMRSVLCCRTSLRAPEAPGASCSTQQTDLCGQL

Regarding `O=C(O)c1ccc(CCn2c(CNc3cccc(OC(F)(F)F)c3)c(Cl)cc(Cl)c2=O)cc1` [Example 107], in the assay with TNF-α production, it took a dose of 1 mg/kg to reach the 50% effect level (ED50). In addition, the “cAMP increasing action (%) at 10 μM” value on rat EP4 receptor is given as 76%.

Consider `CCC[C@H]1CCCN1Cc1c(Cl)cc(Cl)c(=O)n1CCc1ccc(C(=O)O)cc1` [Example 17, 4-{2-[3,5-dichloro-2-oxo-6-{[(2S)-2-propylpyrrolidin-1-yl]methyl}pyridin-1(2H)-yl]ethyl}benzoic acid trifluoroacetate], for which, at rat EP2 receptor, the “Rat EP2 Agonistic Action 10 μM” value is given as 14%. This compound gave a 50% effective dose (ED50) with TNF-α production of 0.15 mg/kg. In addition, the “cAMP increasing action (%) at 10 μM” value on rat EP4 receptor amounted to 58%.

In the case of `O=C(O)c1ccc(CCn2c(CN3CCc4ccc(F)cc43)c(Cl)cc(Cl)c2=O)cc1` [Example 9, 4-(2-{3,5-dichloro-6-[(6-fluoro-2,3-dihydro-1H-indol-1-yl)methyl]-2-oxopyridin-1(21-1)-yl}ethyl)benzoic acid], it took a dose of 4.3 mg/kg to reach the 50% effect level in the assay on TNF-α production (ED50). For the same compound, at rat EP4 receptor, the “cAMP increasing action (%) at 10 μM” value is 65%.

For `CN(Cc1c(Cl)cc(Cl)c(=O)n1CCc1ccc(C(=O)O)cc1)c1cccc(Cl)c1` [Example 160], the “Rat EP2 Agonistic Action 10 μM” value at rat EP2 receptor was 19%. In the assay on TNF-α production, this compound registered a 50% effective dose (ED50) of 2.3 mg/kg. The “cAMP increasing action (%) at 10 μM” value at rat EP4 receptor is given as 79%.
